Consider one sequence from publication PMC11847324, “A communication hub for phosphoregulation of kinetochore-microtubule attachment” (Current biology : CB, 2024).

In experiment [1] the test system is Ndc80c^dwarf. As to the kind of experiment: Fluorescence polarization competition, reporter Bodipy-FL Mps1(137–171). The format is binding, S. cerevisiae. From the text: We measured by fluorescence polarization the affinity of Ndc80^dwarf, a shortened version of Ndc80c[51], for a peptide comprising Mps1 residues 137–171, plus a C-terminal cysteine for labeling. We labeled the peptide with the Bodipy fluorophore and determined fluorescence anisotropy as a function of Ndc80c^dwarf concentration (Figure 3A). We then used unlabeled wild-type and mutant peptides in a competition format, at a fixed Ndc80c^dwarf concentration (Figures 3B,C). The mutant peptides corresponded to mutations characterized in one of the accompanying papers. […] Mutating either the basic residues or the hydrophobic residues in the first part of the consensus motif or the conserved arginine at the end of the second part lowered affinity (raised the Ki) by roughly two logs; mutating both the final arginine and the hydrophobic residues eliminated any detectable competition.
Ndc80c^dwarf, sequence (P33895 1-150): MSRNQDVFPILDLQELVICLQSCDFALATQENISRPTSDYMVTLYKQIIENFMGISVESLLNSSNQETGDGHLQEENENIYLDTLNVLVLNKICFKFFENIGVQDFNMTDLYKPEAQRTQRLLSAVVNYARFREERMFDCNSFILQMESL
Ndc80c^dwarf, sequence (P40460 115-310, further chain): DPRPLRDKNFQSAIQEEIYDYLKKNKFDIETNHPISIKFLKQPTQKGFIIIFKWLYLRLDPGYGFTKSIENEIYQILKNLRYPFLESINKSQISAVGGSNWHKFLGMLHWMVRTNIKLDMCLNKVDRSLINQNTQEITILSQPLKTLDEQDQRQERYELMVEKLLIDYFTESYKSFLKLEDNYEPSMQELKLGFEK
(§1) Figure 3. Fluorescence polarization measurements of Ndc80c^dwarf binding peptides from the N-terminal extensions of Mps1 and Ipl1. (A) Polarization of fluorescence from 20 nM Bodipy-FL Mps1(137–171) (Mps1 residues 137–171 plus a C-terminal cysteine modified with Bodipy-FL -- see Methods) and Bodipy-FL Ipl1 (26–39;45–59) as a function of Ndc80c^dwarf concentration. (B) Competition binding experiment: unlabeled competitor peptides (see figure annotation) were added in twofold serial dilutions to Bodipy-FL Mps1(137–171) and Ndc80c^dwarf at final concentrations of 20 nM and 500 nM respectively. Loss of polarization indicates displacement of bound Bodipy-FL Mps1(137–171) by the competitor. (C) As in (B), with competitor Mps1(137–171) peptides containing mutations that reduce affinity for Ndc80c[40]. (D) Polarization of fluorescence from 20 nM Bodipy-FL Mps1(137–171) as a function of the concentration of Ndc80c^dwarf bearing mutations in Nuf2 that interfere with its Mps1 interaction in cells. (E) As in (B), but with 20 nM Bodipy-FL Ipl1 (26–39;45–59) as the fluorescent reporter and 27μM Ndc80c^dwarf. […] For the Ipl1 peptide, the second copy of the motif, not used for the fluorescence polarization experiments, is shown in the bottom line.
Mps1 (137–171), Ipl1 (26–39;45–59), and Dam1 (254–270;290–305) peptides with added C-terminal cysteines, were synthesized by the Tufts University Core Facility. […] Fluorescence polarization was measured at 25°C with an Envision plate reader (Perkin Elmer) equipped with a filter set optimized for fluorescence polarization of FITC, which has the same absorption and emission spectra as those of Bodipy FL. […] Fluorescence polarization was measured in triplicate. […] An equal volume of a buffer-matched solution containing 40 nM Bodipy-FL labelled peptide and 1 μM Ndc80c^dwarf was added to each of the dilutions, and fluorescence polarization was measured in triplicate. […]

Experiment [2] has as its system Ndc80c^dwarf. As to the kind of experiment: Fluorescence polarization competition, reporter Bodipy-FL Ipl1 (26–39;45–59). The format is binding, S. cerevisiae. As to conditions: 20 nM Bodipy-FL Ipl1 (26–39;45–59), 27μM Ndc80c^dwarf; competitor in twofold serial dilutions; 25°C; Figure 3E. Here is the method:
as §1, with “(B) Competition binding experiment: unlabeled competitor peptides (see figure annotation) were added in twofold serial dilutions to Bodipy-FL Mps1(137–171) and Ndc80c^dwarf at final concentrations of 20 nM and 500 nM respectively.” left out, “cells.” for “cells. (E) As in (B), but with 20 nM Bodipy-FL Ipl1 (26–39;45–59) as the fluorescent reporter and 27μM Ndc80c^dwarf.”
We measured the Ipl1 peptide affinity, both directly (Figure 3A) and by measuring displacement of a fluorophore-labeled Mps1 peptide (Figure 3B) as a function of increasing concentrations of unlabeled Ipl1 peptide. […]
Mps1 (137–171), Ipl1 (26–39;45–59), and Dam1 (254–270;290–305) peptides with added C-terminal cysteines, were synthesized by the Tufts University Core Facility. […] Fluorescence polarization was measured in triplicate. […]

Regarding “RQNMKEDITAKYAERRSKRFLISNRTTKLGPAKRAC [Mps1 (137–171), peptide comprising Mps1 residues 137–171, plus a C-terminal cysteine for labeling]”, in the experiment on Ndc80c^dwarf [1] (20 nM Bodipy-FL Mps1(137–171), 500 nM Ndc80c^dwarf, competitor in twofold serial dilutions, 20 mM Tris pH 7.2, 100 mM NaCl, 2 mM TCEP, 25°C, triplicate, Figures 3B,C), the “displacement of bound Bodipy-FL Mps1(137–171) by unlabeled competitor peptide” value is on record as “displaced the fluorescent Mps1 peptide, at a concentration consistent with the affinity measured by direct titration”. In addition, the “relative affinity of peptides for Ndc80c^dwarf (comparison in words)” value in the experiment with Ndc80c^dwarf [1] (direct titration (Figure 3A) and competition with Bodipy-FL Mps1(137–171) (Figure 3B)) is given as “nearly the same”. Besides, in the experiment with Ndc80c^dwarf [2], the “displacement of Bodipy-FL Ipl1 (26–39;45–59) by unlabeled competitor peptide” value was “competed strongly”.
